# Assay results published in US20230365619A1, “CRYSTALLINE SODIUM CHOLESTERYL SULFATE” (Durect Corporation, priority 2020, published 2023).
# Assay: Dynamic Vapor Sorption/Desorption (DVS)
# Format: physicochemical
# Conditions: FIG. 4
smiles,measurement,setting,value
"CC(C)CCC[C@@H](C)[C@H]1CC[C@H]2[C@@H]3CC=C4C[C@@H](OS(=O)(=O)[O-])CC[C@]4(C)[C@H]3CC[C@]12C.[Na+] [Form F, sodium cholesteryl sulfate]",weight change upon desorption (DVS),desorption 95% to 5% relative humidity,20.8%
same,weight gain on sorption (DVS),"ramping from 5% to 95% relative humidity, 10% RH increments, nitrogen purge",23.8%
same,DVS sorption profile (onset of weight gain),ramping from 5% to 95% relative humidity,little weight gain until 55% relative humidity
